Each structure is given as a SMILES string.

In one test the test system is 143B. Description: Proliferation assay, CellTiter-Glo, 72 hour. The test is classed as cell-based. The settings on record: osteosarcoma cell line, read-out: Inhibition of proliferation, 143B.
In a further test the target is CDK8/cyclin C (Homo sapiens (Human), UniProt P49336). Description: Life Technologies LanthaScreen Eu kinase assay, CDK8. The test is classed as binding. As to conditions: read-out: Calculated IC50, CDK8/cyclin C.
CDK8/cyclin C, sequence (P49336 whole entry): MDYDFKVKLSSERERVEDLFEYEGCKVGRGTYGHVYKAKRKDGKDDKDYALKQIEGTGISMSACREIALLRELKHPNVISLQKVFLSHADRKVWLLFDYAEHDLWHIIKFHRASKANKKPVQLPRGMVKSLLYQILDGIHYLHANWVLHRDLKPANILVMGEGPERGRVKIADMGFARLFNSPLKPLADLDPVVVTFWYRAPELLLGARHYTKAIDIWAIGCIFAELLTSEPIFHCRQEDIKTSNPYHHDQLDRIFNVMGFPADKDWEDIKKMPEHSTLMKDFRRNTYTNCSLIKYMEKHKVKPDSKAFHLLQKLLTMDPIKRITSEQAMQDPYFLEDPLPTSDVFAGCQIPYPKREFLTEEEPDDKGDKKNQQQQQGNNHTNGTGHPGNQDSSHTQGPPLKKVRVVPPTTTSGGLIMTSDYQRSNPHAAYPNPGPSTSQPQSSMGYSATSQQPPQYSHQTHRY
CDK8/cyclin C, sequence (P24863 whole entry partner): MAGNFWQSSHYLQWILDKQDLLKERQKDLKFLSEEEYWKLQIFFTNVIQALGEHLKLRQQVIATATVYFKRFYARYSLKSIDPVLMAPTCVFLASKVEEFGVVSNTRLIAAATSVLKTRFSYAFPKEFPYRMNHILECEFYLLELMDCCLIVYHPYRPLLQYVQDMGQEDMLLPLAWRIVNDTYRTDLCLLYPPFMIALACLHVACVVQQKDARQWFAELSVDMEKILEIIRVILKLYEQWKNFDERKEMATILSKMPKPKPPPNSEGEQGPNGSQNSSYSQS
The subject of the next test is T47D. Put plainly: Proliferation assay, CellTiter-Glo, 72 hour. In kind it is cell-based. As to conditions: breast cancer cell line, read-out: Inhibition of proliferation, T47D.
For another test, the system named is SK-ES. Put plainly: Proliferation assay, CellTiter-Glo, 72 hour. In kind it is cell-based. The settings on record: Ewing's sarcoma cell line, read-out: Inhibition of proliferation, SK-ES. A general note: ATP-based viability assays read luminescence as a measure of living cells.
For a further test, the system named is MCF10A. Description: Proliferation assay, CellTiter-Glo, 72 hour. In kind it is cell-based. As to conditions: non-tumorigenic breast epithelial cell line, read-out: Inhibition of proliferation, MCF10A.
The target of the next test is FLAG-CDK7 WT (Homo sapiens (Human), UniProt P50613). Description: In vitro kinase assay of FLAG-CDK7 immunoprecipitated from treated HCT116 cells. The test is classed as cell-based. As to conditions: HCT116 cells treated 4 hours, dose-response. As to the method:
Following the treatment, the cells were washed 2-fold with cold PBS and then lysed in the following lysis buffer: 50 mM TrisHCl pH 8.0, 150 mM NaCl, 1% NP-40, 5 mM EDTA, 1 mM DTT, and protease/phosphatase cocktails. Following clearance, the lysates were treated with compound I-49 for pulldown (or CDK7 antibody for IP) overnight at 4° C. The lysates were then incubated with streptavidin agarose for pulldown (or Protein G Agarose for IP) for an additional 2-3 hours at 4° C. Agarose beads were washed 5 times with a lysis buffer and then boiled in 2X SDS for 10 minutes at 95° C.
In vitro kinase assays with immunoprecipitated proteins (or recombinant CAK complexes) were performed as follows. Kinase reactions were performed in 25 μL of final volume of reaction buffer (50 mM Hepes, pH 7.5, 150 mM NaCl, 10 mM MgCl2, 5% glycerol, 25 μM ATP, and 10 μCi of [γ-32P]ATP). Each reaction contained 1 μg of RNAP II. Incubation was at 30° C. for 30-45 min. Reactions were terminated by addition of 5 μL of 5×SDS-PAGE sample buffer and incubated at 95° C. for 5 min. Reactions were analyzed by SDS-PAGE, and the dried gel was exposed to film or PhosphorImager plate.
HCT116 cells were generated stably expressing FLAG-CDK7 WT and C312S. […] CDK7 was then immunoprecipitated (IP) from each combination treatment using a FLAG antibody, and washed IPs were subjected to in vitro kinase assays (FIG. 4F). […]

For another test, the target named is CDK5/p25 (Homo sapiens (Human), UniProt Q00535). Description: Life Technologies Z'-Lyte kinase assay, CDK5/p25. In kind it is biochemical. As to conditions: read-out: Calculated IC50, CDK5/p25.
CDK5/p25, sequence (Q00535 whole entry): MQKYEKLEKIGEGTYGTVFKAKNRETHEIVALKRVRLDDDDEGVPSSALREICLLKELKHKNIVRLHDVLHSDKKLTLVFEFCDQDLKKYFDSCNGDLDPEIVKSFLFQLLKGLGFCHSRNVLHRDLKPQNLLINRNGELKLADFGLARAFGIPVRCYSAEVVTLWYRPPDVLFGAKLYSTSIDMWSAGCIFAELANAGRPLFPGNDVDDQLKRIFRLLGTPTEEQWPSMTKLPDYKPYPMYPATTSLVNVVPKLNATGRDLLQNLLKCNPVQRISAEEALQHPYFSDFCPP
CDK5/p25, sequence (Q15078 99-307 partner): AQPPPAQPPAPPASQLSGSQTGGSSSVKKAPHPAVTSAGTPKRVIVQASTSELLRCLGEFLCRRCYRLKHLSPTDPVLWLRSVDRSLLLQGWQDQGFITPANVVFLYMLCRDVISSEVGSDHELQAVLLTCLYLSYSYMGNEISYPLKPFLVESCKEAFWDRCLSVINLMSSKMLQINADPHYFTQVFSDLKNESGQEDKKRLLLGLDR
The next test relates to THP-1. Description: Proliferation assay, CellTiter-Glo, 72 hour. In kind it is cell-based. The settings on record: blood cancer cell line, read-out: Inhibition of proliferation, THP-1.
A further test deals with A673. Description: Proliferation assay, CellTiter-Glo, 72 hour. The test is classed as cell-based. As to conditions: Ewing's sarcoma cell line, read-out: Inhibition of proliferation, A673.
The target of another test is CDK1/cyclin B (Homo sapiens (Human), UniProt P06493). Description: Life Technologies Z'-Lyte kinase assay, CDK1. As to conditions: read-out: Calculated IC50, CDK1/cyclin B. The test is classed as biochemical.
CDK1/cyclin B, sequence (P06493 whole entry): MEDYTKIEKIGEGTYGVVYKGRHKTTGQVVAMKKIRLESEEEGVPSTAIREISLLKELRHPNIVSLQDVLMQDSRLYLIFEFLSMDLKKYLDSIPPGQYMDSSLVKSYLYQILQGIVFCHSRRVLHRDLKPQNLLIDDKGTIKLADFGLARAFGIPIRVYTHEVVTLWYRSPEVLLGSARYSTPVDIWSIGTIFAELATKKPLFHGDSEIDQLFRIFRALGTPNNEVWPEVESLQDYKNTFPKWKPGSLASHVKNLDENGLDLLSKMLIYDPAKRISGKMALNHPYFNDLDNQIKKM
CDK1/cyclin B, sequence (P14635 whole entry partner): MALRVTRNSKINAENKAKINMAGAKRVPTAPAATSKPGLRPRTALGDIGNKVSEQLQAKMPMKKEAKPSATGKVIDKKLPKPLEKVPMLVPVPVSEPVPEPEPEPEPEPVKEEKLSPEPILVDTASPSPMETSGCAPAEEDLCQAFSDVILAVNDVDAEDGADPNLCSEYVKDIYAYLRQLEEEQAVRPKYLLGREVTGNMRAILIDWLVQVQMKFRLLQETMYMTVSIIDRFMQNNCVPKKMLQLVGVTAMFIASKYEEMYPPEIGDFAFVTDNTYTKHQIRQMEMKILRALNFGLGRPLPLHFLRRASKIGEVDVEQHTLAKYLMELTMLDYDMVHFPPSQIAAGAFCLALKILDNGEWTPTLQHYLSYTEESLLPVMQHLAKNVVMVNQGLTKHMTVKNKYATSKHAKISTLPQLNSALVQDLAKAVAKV
For the next test, the system named is MV4-11. Description: Proliferation assay, CellTiter-Glo, 72 hour. The test is classed as cell-based. As to conditions: blood cancer cell line, read-out: Inhibition of proliferation, MV4-11.
The next test deals with MDA-MB231. Description: Proliferation assay, CellTiter-Glo, 72 hour. The test is classed as cell-based. As to conditions: breast cancer cell line, read-out: Inhibition of proliferation, MDA-MB231.
Test [1] has as its system Jurkat and Loucy leukemia cell lines. Description: Anti-proliferative effect, cell titer glo, 72 hours. In kind it is cell-based. As to the method:
Precipitated proteins were washed and probed for CDK7.
(§1) Proliferation assays were conducted over a 48-72 hour time period (as noted). […] Cancer cell line profiling was performed over a 72 time period using Alamar Blue reagent.
The phenylamino-pyrimidine (PAP) core scaffold is a “privileged” ATP-site directed pharmacophore with the most famous example being imatinib, a Bcr-Abl inhibitor approved to treat several cancers including Chronic Myelogenous Leukemia. Numerous PAP derivatives have been reported as potent inhibitors of various CDKs; however, efforts to achieve greater selectivity amongst the CDK family members have been hindered by the high sequence and structural similarity of CDKs. […] In an effort to explore broadly which CDKs might be targetable by a covalent inhibitor, a library of acrylamide-modified PAPs was built, and the library was subject to cell proliferation as well broad kinase selectivity profiling using the Kinativ chemical proteomics approach.

The next test deals with Hs863T. Put plainly: Proliferation assay, CellTiter-Glo, 72 hour. In kind it is cell-based. As to conditions: Ewing's sarcoma cell line, read-out: Inhibition of proliferation, Hs863T.
The subject of another test is MNNG-HOS Cl#5. Description: Proliferation assay, CellTiter-Glo, 72 hour. In kind it is cell-based. The settings on record: osteosarcoma cell line, read-out: Inhibition of proliferation, MNNG-HOS Cl#5.
In test [2] the test system is retinal pigment epithelial (RPE1) cells. Description: Anti-proliferative assay, cell titer glo, 72 hours. In kind it is cell-based, human. As to the method: At indicated time points, cellular lysates were harvested at the indicated times points and immunoblotted for the indicated proteins. […] Anti-proliferative effects were determined using cell titer glo analysis. […] Anti-proliferative effects were determined using alamarBlue® analysis. […] Anti-proliferative effects were determined using cell titer glo analysis. […] Dose: i.v. 1 mg/kg and p.o. 10 mg/kg.
as §1
CDK7 inhibitors display strong antiproflierative effects in leukemia and lymphoma cancer cells. However, a better definition of the breadth of their therapeutic potential in other cell types has not been reported. […] The rationale for examining such a large panel of human cancer cell lines is based on the fact that there is substantial genetic heterogeneity among human tumor cells, even with the same histological origins. In general, the data reveal a bimodal distribution with cell lines displaying exquisite sensitivity or apparent complete insensitivity to the compound.

For the next test, the system named is hTERT-HME1. Description: Proliferation assay, CellTiter-Glo, 72 hour. The settings on record: immortalized normal mammary epithelial cell line, read-out: Inhibition of proliferation, hTERT-HME1. In kind it is cell-based.
A further test relates to RD-ES. Description: Proliferation assay, CellTiter-Glo, 72 hour. As to conditions: Ewing's sarcoma cell line, read-out: Inhibition of proliferation, RD-ES. The test is classed as cell-based.
A further test concerns SKBR3. Put plainly: Proliferation assay, CellTiter-Glo, 72 hour. The test is classed as cell-based. The settings on record: breast cancer cell line, read-out: Inhibition of proliferation, SKBR3.
In the next test the test system is MCF7. Description: Proliferation assay, CellTiter-Glo, 72 hour. The test is classed as cell-based. As to conditions: breast cancer cell line, read-out: Inhibition of proliferation, MCF7.
For a further test, the system named is Jurkat. Put plainly: Jurkat (proliferation, CellTiter-Glo). The test is classed as cell-based. As to conditions: read-out: Calculated IC50, Jurkat.

FLAG-CDK7 WT, sequence (P50613 whole entry): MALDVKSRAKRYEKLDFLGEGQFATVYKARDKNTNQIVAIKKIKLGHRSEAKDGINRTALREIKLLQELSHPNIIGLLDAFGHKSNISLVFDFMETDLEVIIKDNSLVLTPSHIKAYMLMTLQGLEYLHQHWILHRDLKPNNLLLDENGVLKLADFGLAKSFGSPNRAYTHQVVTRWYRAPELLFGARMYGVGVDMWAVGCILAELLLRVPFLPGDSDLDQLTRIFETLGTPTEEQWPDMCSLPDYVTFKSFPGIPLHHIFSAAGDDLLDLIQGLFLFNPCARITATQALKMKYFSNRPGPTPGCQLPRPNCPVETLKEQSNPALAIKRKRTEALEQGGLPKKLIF
FLAG-CDK7 WT, sequence (P51946 whole entry partner): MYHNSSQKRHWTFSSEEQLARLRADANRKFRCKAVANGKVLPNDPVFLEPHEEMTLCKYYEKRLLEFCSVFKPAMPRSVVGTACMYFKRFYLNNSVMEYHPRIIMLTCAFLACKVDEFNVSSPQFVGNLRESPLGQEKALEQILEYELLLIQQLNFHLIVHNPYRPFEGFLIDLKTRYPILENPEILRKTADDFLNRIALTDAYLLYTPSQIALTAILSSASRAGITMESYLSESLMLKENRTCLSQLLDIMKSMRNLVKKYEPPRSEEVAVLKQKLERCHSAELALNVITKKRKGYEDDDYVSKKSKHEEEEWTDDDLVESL
FLAG-CDK7 WT, sequence (P51948 whole entry partner): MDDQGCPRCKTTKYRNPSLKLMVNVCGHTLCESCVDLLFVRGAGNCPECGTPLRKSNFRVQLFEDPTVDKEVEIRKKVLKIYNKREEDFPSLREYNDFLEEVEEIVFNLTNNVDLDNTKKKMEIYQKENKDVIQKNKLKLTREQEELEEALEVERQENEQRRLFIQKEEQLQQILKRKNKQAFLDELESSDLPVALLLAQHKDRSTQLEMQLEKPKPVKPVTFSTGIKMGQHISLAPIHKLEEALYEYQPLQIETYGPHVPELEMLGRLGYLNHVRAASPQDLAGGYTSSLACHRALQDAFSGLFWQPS

For the molecule `CN(C)C/C=C/C(=O)Nc1ccc(C(=O)Nc2cccc(Nc3ncc(Cl)c(-c4c[nH]c5ccccc45)n3)c2)cc1` [Formula I-23], the IC50 with 143B was above 5000 nM; on CDK8/cyclin C, at least 1000 nM; in the test with T47D it was above 5000 nM; with SK-ES, below 500 nM; with MCF10A it was below 500 nM; at CDK5/p25, 100 to 1000 nM. In addition, the IC50 was below 500 nM with THP-1; below 500 nM in the test on A673; 100 to 1000 nM on CDK1/cyclin B; below 500 nM with MV4-11; below 500 nM in the test with MDA-MB231; 500 to 5000 nM in the test with Hs863T. Further, the IC50 in the test on MNNG-HOS Cl#5 is 500 to 5000 nM; in the test with hTERT-HME1 it was below 500 nM; with RD-ES it was below 500 nM; in the test with SKBR3 it was 500 to 5000 nM; with MCF7 it was below 500 nM; in the test with Jurkat it was below 100 nM. For the same molecule, on FLAG-CDK7 WT, the “Inhibition of FLAG-CDK7 WT kinase activity” value was “inhibited FLAG-CDK7 WT in a dose-dependent fashion”. In test [1], the “Inhibition of proliferation of Jurkat and Loucy leukemia cell lines” value is on record as “potently inhibits proliferation”. For the same molecule, in test [2], the “Sensitivity of untransformed RPE1 cells” value is on record as “largely resistant”.

These data come from US10787436B2, “Inhibitors of cyclin-dependent kinase 7 (CDK7)” (Dana-Farber Cancer Institute, Inc., priority 2012, dated 2020).
